Experimental data from US20020085997A1, “TUMOUR VACCINE AND PROCESS FOR THE PREPARATION THEREOF” (priority 1995, published 2002).

Legend:
CT-26 cells = test: Protection of Balb/c mice by pre-immunisation with vaccine of foreign peptide-charged CT-26 colon carcinoma cells (prophylactic mouse model); format: in vivo; details: for animals protected: vaccinated twice s.c. 10^5 cells/mouse
M-3 melanoma metastases = test: Curing of DBA/2 mice having M-3 melanoma metastases with vaccine of foreign peptide-charged melanoma cells (therapeutic mouse model); format: in vivo
M-3 cells = test: Comparative FACS analysis of M-3 cells treated with FITC-labelled foreign peptide by various methods; format: cell-based, murine
[1] = system: highly tumorigenic variant of the M-3 cells; format: in vivo, mice; details: cells charged with peptide by means of TfpL/DNA complexes

Row | Sequence | suitability of the peptide for producing an anti-tumour immunity (CT-26 cells; murine colon carcinoma CT-26, Balb/c) | animals protected (CT-26 cells) | animals cured (M-3 melanoma metastases; 160 μg peptide charged onto M-3 cells by TfpL/DNA complexes, 5 day metastasis, 10^5 irradiated cells/animal s.c. twice) | degree of systemic immune response of the tumour vaccine (M-3 melanoma metastases; adjuvant mixing of the peptide with the irradiated vaccines) | animals cured (M-3 melanoma metastases; complexes containing 0.5 μg of peptide, five-day metastasis) | mice cured (M-3 melanoma metastases; complexes containing 5 μg of peptide, five-day metastasis) | mice cured (M-3 melanoma metastases; complexes containing 50 μg of peptide, five-day metastasis) | mice able to eliminate the metastases (M-3 melanoma metastases; mice with metastases vaccinated with xenopeptised irradiated M-3 cells (TfpL and empty vector)) [%] | degree of systemic immune response of the tumour vaccine (M-3 melanoma metastases; peptide administered to the cells by polylysine/transferrin, compared with incubation with peptide for 24 hours (pulsing)) | animals cured (M-3 melanoma metastases; vaccine of cells treated with 4 mg peptide by incubation (pulsing, 3 hours 37° C.)) | animals remained free from tumours (M-3 melanoma metastases; vaccine with 400 μg peptide applied by incubation (pulsing, 3 hours 37° C.)) | peptide binding to cells after washing step (M-3 cells; adjuvant mixing: 100 μg FITC-labelled peptide, 30 minutes ambient temperature, 10^6 M-3 cells) | detection of cell-bound FITC peptide by fluorescent microscopy (M-3 cells; pulsing, cytocentrifuged M-3 cells) | shift in fluorescence (M-3 cells; pulsing: incubation with 450 μg FITC peptide, 3 hours 37° C., M-3 cells) | shift in fluorescence compared with untreated cells or cells treated with polylysine alone (M-3 cells; transloading: 160 μg FITC-labelled peptide with TfpL/pL/DNA complex, 3 hours 37° C., M-3 cells) | vaccinated mice able to eliminate a tumour challenge (CT-26 cells; irradiated CT-26 vaccine alienised with peptide complexed with TfpL or pL) [%] | animals developed tumours [1]
1 | FFIGALEEI [Phe Phe Ile Gly Ala Leu Glu Glu Ile, synthetic peptide not hitherto found in nature, designed as ligand for MHC-I molecule of type H2-Kd] | confirmed | 4 out of 8 |  |  |  |  |  |  |  |  |  |  |  |  |  |  | 
2 | LFEAIEGFI [Leu Phe Glu Ala Ile Glu Gly Phe Ile, viral peptide derived from the influenza virus haemagglutinin, H2-K^d-ligand, used as foreign peptide to charge tumour cells] |  | 6 out of 8 | 7 out of 8 | inefficient | 2 out of 8 | 4 out of 8 | 6 out of 8 | 87.5 | significantly more marked | 1 out of 8 | 3 out of the 8 | at most negligible | practically undetectable | one power of ten | ~2 powers of ten | 75 | 
3 | LPEAIEGFG [Leu Pro Glu Ala Ile Glu Gly Phe Gly, control peptide, anchor amino acids at positions 2 and 9 replaced by proline and glycine, reference compound] |  |  |  |  |  |  |  |  |  |  |  |  |  |  |  |  | 7 out of 8
